One test has as its system B16.F10 tumor. Nature of the test: In vivo efficacy in B16.F10 mouse model of melanoma (Example 39). Here is the method: The treatments were administered on days 5, 8, and 12 (biweekly×3 injections) post tumor implantation. Health status of the animals was monitored and tumor size was measured three times a week. […] Tumors from each animal were dissected and tumor size was measured. Tumor volume was calculated using the formula: (width×width×length)/2 mm^3.

A further test relates to B16.F10 cells. In words: CellTiter-Glo Luminescent Cell Viability Assay (cytotoxicity). The test is classed as cell-based, mouse. As to conditions: 24, 48 and 72 hours. Here is the method:
B16.F10 cells, grown to 85-90% confluency in 150 cm^2 flasks (passage <30), were resuspended in media (MEM-alpha, 10% HI-FBS, 1× antibiotic-antimycotic) and added to 96-well opaque-clear bottom plates at a concentration of 1500 cells/well in 200 μL/well. The cells were incubated at 37° C. with 5% CO2 for 24 hours. The following day, serial dilutions of 2× concentrated particles and 2× concentrated free drug were made in 12-well reservoirs with media to specified concentrations. The media in the plates was replaced with 100 μL of fresh media and 100 μL of the corresponding serially diluted drug. Three sets of plates were prepared with duplicate treatments. Following 24, 48 and 72 hours of incubation at 37° C. with 5% CO2, the media in the plates was replaced with 100 μL of fresh media and 100 μL of CTG solution, and then incubated for 5 minutes on a plate shaker at room temperature set to 450 rpm and allowed to rest for 15 minutes. Viable cells were measured by luminescence using a microtiter plate reader. The data was plotted as % viability vs. concentration and standardized to untreated cells.
(In general: ATP-based viability assays read luminescence as a measure of living cells.)

Results on five molecules are retold here after patent US20110262490A1, “POLYMER-AGENT CONJUGATES, PARTICLES, COMPOSITIONS, AND RELATED METHODS OF USE” (priority 2009, published 2011).

In the case of `CC(=O)O[C@H]1C(=O)[C@@]2(C)[C@H]([C@H](OC(=O)c3ccccc3)[C@]3(O)C[C@H](OC(=O)[C@H](O)[C@@H](NC(=O)c4ccccc4)c4ccccc4)C(C)=C1C3(C)C)[C@]1(OC(C)=O)CO[C@@H]1C[C@@H]2O` [Free paclitaxel, paclitaxel], the “Day-17 TGI” value in the test with B16.F10 tumor (6 mg/kg IV days 5, 8, 12) is 57%; in the test with B16.F10 tumor (6 mg/kg IV days 5, 8, 12, listed as free paclitaxel), 57%; in the test on B16.F10 tumor (15 mg/kg IV days 5, 8, 12) it was 83%; in the test with B16.F10 tumor (15 mg/kg IV days 5, 8, 12, listed as free paclitaxel), 83%. Take “Bis(Docetaxel) Glutamate-5050 PLGA-O-Acetyl [Example 9]”: the “Growth inhibition of B16.F10 cells” value in the test with B16.F10 cells is “inhibited the growth of B16.F10 cells in a dose and time dependent manner”. Still for that read-out and setting: the same measure for “Docetaxel-5050 PLGA-O-Acetyl [Example 8]”: “inhibited the growth of B16.F10 cells in a dose and time dependent manner”; for Doxorubicin 5050 PLGA Amide [Example 5]: “inhibited the growth of B16.F10 cells in a dose and time dependent manner”.

On to “Paclitaxel-5050 PLGA-O-Acetyl [Example 7]”, for which, in the test on B16.F10 cells, the “Growth inhibition of B16.F10 cells” value was “inhibited the growth of B16.F10 cells in a dose and time dependent manner”.
